Source: patent US4622319A, “Methods of using PAF-antagonistic diazepines” (Boehringer Ingelheim KG, priority 1984, dated 1986)

test system: PAF-induced aggregation of human thrombocytes; test: Inhibition of PAF-induced blood platelet aggregation in vitro; type: cell-based; settings: human thrombocyte-rich plasma, aggregation induced with PAF 5×10^-8 M, concentration giving 50% inhibition of aggregation, read-out: PAF-Antag. IC50
Experimental: 1. Inhibition of blood platelet aggregation in vitro
The PAF-induced aggregation of human thrombocytes in vitro is used to determine PAF-antagonistic activity. To obtain thrombocyte-rich plasma (TRP), blood is taken from an uncongested vein using a plastic syringe containing 3.8% sodium citrate solution. The ratio of sodium citrate solution to blood is 1:9. After careful mixing the citrate blood is centrifuged for 20 minutes at 150 g (1200 rpm). The thrombocyte aggregation is measured using the method devised by Born and Cross (G. V. R. Born and M. J. Cross, J. Physiol. 168, 178 (1963)), by adding an aggregation initiator (PAF) to the TRP with constant stirring.
The test substance is added 2 to 3 minutes before aggregation is initiated in a volume of 10 μl. Either distilled water, ethanol and/or dimethylsulphoxide (each in suitable concentrations) can be used as solvent.
Control mixtures contain corresponding volumes of these solvents. After the initial absorption has been recorded (2 to 3 minutes) aggregation is induced with PAF (5×10^-8 M).
The maximum of the first aggregation wave is used to assess the effects of the substance. The PAF-induced maximum absorption rate (=maximum aggregation×100%) is tested at the same time in a parallel mixture (=control mixture in one of the channels of the two-channel aggregometer) as each test mixture (second channel) and is used as a 100% value.
The aggregation value attained under the effect of the test substance is given as a percentage of the control value, i.e. less than 100% in the case of an inhibition of aggregation and over 100% in the case of an increase.
Each test substance is investigated at concentrations of from 10^-3 to 10^-8 M with a random sampling of n=4 with regard to an inhibitory effect on the PAF-induced thrombocyte aggregation. Then a concentration-activity curve is drawn up using 3 concentrations and the IC50 is determined (concentration giving a 50% inhibition of aggregation).

Compound | IC50 [µM]
O=C1CC(=O)N(c2ccccc2)c2cc(Br)ccc2N1 | 470
CN1C(=O)CC(=O)N(c2ccccc2)c2cc(Cl)ccc21 [Compound 1, Clobazam, reference compound] | 250
CN1C(=O)CC(=O)N(c2ccccc2)c2cc(C(F)(F)F)ccc21 [Compound 2, Triflubazam, reference compound] | 200
CCN1C(=O)CC(=O)N(c2ccccc2)c2cc(Cl)ccc21 [Compound 4] | 98
CN1C(=O)CC(=O)N(c2ccccc2Cl)c2cc(Cl)ccc21 [Compound 5] | 220
CN1C(=O)CC(=O)N(c2ccccc2C(F)(F)F)c2cc(Cl)ccc21 [Compound 6] | 66
CN1C(=O)CC(=O)N(c2ccccc2F)c2ccccc21 [Compound 7] | 96
COc1ccccc1N1C(=O)CC(=O)N(C)c2ccc(Cl)cc21 [Compound 8] | 290
CN1C(=O)CC(=O)N(c2ccccn2)c2cc(Br)ccc21 [Compound 9] | > 1000
CN1C(=O)CC(=O)N(c2ccccc2Cl)c2cc([N+](=O)[O-])ccc21 [Compound 10] | 310
CN1C(=O)CC(=O)N(c2ccccc2)c2ccc(Cl)cc21 [Compound 11] | 210
CC1C(=O)Nc2ccc(Br)cc2N(c2ccccc2)C1=O (centres unmarked) [Compound 12] | 350
CN1CCC(=O)N(c2ccccc2)c2cc(Br)ccc21 [Compound 13] | > 1000
O=C1CCN(CCO)c2ccc(Cl)cc2N1c1ccccc1 [Compound 14] | 285
CCN1CCC(=O)N(c2ccccc2)c2cnccc21 [Compound 15] | > 100
CN1C(=O)CC(=O)N(c2ccccc2)c2cnccc21 [Compound 16] | > 50
CCn1nc(C)c2c1N(c1ccccc1)C(=O)CC(=O)N2 [Compound 17] | > 100
